Key:
[1] = test system: HER2-expressing HCC1954 tumors; assay: PET/CT imaging (pretargeted, preclicked, tracer alone) in HCC1954 tumor-bearing mice; type: in vivo; settings: HCC1954 tumor-bearing female mice, 60 min postinjection
Method: Animal studies were approved by the national Project Authorization Board in Finland (licenses: ESAVI/12132/04.10.07/2017 and ESAVI/8648/2020) and were carried out in compliance with EU Directive 2010/EU/63 on the protection of animals used for scientific purposes. Healthy female Balb/cAnNrj mice (9–14 weeks old, 19 weeks old for fasting studies) were used for experiments with [^18F]FDG-Tz. Female Rj:Athymic-Foxn1^nu/nu mice (8–10 weeks old) bearing subcutaneous HER2-expressing HCC1954 tumors were used for pretargeted and control preclicked experiments with [^18F]TCO-MSNA, detailed information for the mice preparation was described earlier.[59] Animals were housed in individually ventilated cages under a 12 h light/dark cycle with ad libitum access to water and food unless otherwise stated. Animals were anesthetized with isoflurane (induction 4–5%, maintenance 1.5–2.5%, 0.4 L/min O2) and sacrificed by cervical dislocation after applying cardiac puncture for blood collection. […]
Image analysis was performed with Carimas software (version 2.10, Turku PET Centre, Turku, Finland). CT scans were utilized as an anatomical reference combined with the radioactivity signal from PET images. […] Standardized uptake values (SUV) were calculated, corrected with the remaining radioactivity in the cannula, tail, and syringe, and decay-corrected to the time of injection. […]

[2] = Ex vivo biodistribution in healthy Balb/cAnNrj mice
Method: (§1) Animal studies were approved by the national Project Authorization Board in Finland (licenses: ESAVI/12132/04.10.07/2017 and ESAVI/8648/2020) and were carried out in compliance with EU Directive 2010/EU/63 on the protection of animals used for scientific purposes. Healthy female Balb/cAnNrj mice (9–14 weeks old, 19 weeks old for fasting studies) were used for experiments with [^18F]FDG-Tz. Female Rj:Athymic-Foxn1^nu/nu mice (8–10 weeks old) bearing subcutaneous HER2-expressing HCC1954 tumors were used for pretargeted and control preclicked experiments with [^18F]TCO-MSNA, detailed information for the mice preparation was described earlier.[59] Animals were housed in individually ventilated cages under a 12 h light/dark cycle with ad libitum access to water and food unless otherwise stated. Animals were anesthetized with isoflurane (induction 4–5%, maintenance 1.5–2.5%, 0.4 L/min O2) and sacrificed by cervical dislocation after applying cardiac puncture for blood collection.
For [^18F]FDG-Tz ex vivo evaluation, the mice were sacrificed at 15 (n = 6), 30 (n = 4), and 60 min (n = 2) postinjection. [^18F]FDG-Tz distribution at 15 min postinjection was also studied in animals after fasting (n = 3, 4 h fasting prior to injection, water available ad libitum). Radiolabeled compound was administrated via the tail vein (1.8–11.4 MBq in 50–170 μL). For all experiments involving MSNA ex vivo measurements were performed after 60 min PET/CT imaging.
After sacrifice, tissue samples from organs of interest were dissected and weighed. Radioactivity was measured with a gamma counter (Triathler 3″; Hidex, Turku, Finland); the percentage injected radioactivity dose per gram of tissue (%ID/g) was calculated, corrected with the remaining radioactivity in the cannula, tail, and the syringe and decay-corrected to the time of injection.

[3] = In vivo dynamic PET/CT imaging in healthy Balb/cAnNrj mice; settings: dynamic PET
Method: as §1
For in vivo [^18F]FDG-Tz studies, four mice were injected with 4.0–4.8 MBq in 50–80 μL volume via the tail vein. Animals were imaged with Molecubes β-cube (PET) and X-cube (CT) (MOLECUBES NV, Ghent, Belgium) for 60 min and reconstructed into time frames 30 × 10, 15 × 60, 4 × 300 s, and 2 × 600 s. For pretargeted experiments as well as control imaging with preclicked [^18F]TCO-MSNA, Inveon Multimodality PET/CT (Siemens Medical Solutions, Knoxville, TN, USA) was used to perform dynamic PET with 6 × 10, 4 × 60, and 11 × 300 s time frames. For pretargeted imaging, TCO-MSNA (50 μL, 2.5 nmol of TCO) was injected 20 min prior to [^18F]FDG-Tz (63 ± 17 μL) administration via the tail vein. For all experiments two animals were imaged at the same time under isoflurane anesthesia. Mice were sacrificed immediately after imaging for ex vivo evaluation.
Image analysis was performed with Carimas software (version 2.10, Turku PET Centre, Turku, Finland). CT scans were utilized as an anatomical reference combined with the radioactivity signal from PET images. Regions of interest (ROIs) within the selected organs were defined in three dimensions. Blood pool results were obtained from the heart left ventricle cavity; tumor ROIs were drawn excluding the fluid-filled tumor core (Figure S13). Standardized uptake values (SUV) were calculated, corrected with the remaining radioactivity in the cannula, tail, and syringe, and decay-corrected to the time of injection.

- Tumor SUV [1]: 0.16 ± 0.04 SUV
- Biodistribution difference between fasted and nonfasted animals ([2]; 15 min postinjection, 4 h fasting): no statistically significant difference
- Organ accumulation in awake versus isoflurane anesthetized animals ([2]; 60 min after i.v. injection): trend of lower accumulation
- Blood radioactivity ([2]; i.v., 60 min postinjection): 0.9 ± 0.3 %ID/g
- Brain uptake ([2]; i.v., 60 min postinjection): 0.08 ± 0.03 %ID/g
- Gallbladder radioactivity ([2]; i.v., 60 min postinjection): 7.0 ± 0.7 %ID/g
- Kidneys radioactivity ([2]; i.v., 60 min postinjection): 1.2 ± 0.4 %ID/g
- Liver radioactivity ([2]; i.v., 60 min postinjection): 3.2 ± 1.0 %ID/g
- Tibia bone radioactivity (defluorination) ([2]; i.v., 60 min postinjection): 0.26 ± 0.04 %ID/g
- Heart SUV ([3]; 0.6 min): 5.06 ± 4.25 SUV
- Blood SUV ([3]; 0.8 min): 5.26 ± 2.69 SUV
- Brain SUVpeak ([3]; 0.8 min): 0.33 ± 0.20 SUV
- Liver SUV ([3]; 4.5 min): 5.63 ± 1.11 SUV
- Blood SUV ([3]; 60 min): 0.43 ± 0.06 SUV
- Brain SUV ([3]; 60 min): 0.05 ± 0.01 SUV
- Heart SUV ([3]; 60 min): 0.41 ± 0.05 SUV
- Liver SUV ([3]; 60 min): 2.00 ± 0.57 SUV
Compound: O=C(CCON=C[C@H]([18F])[C@@H](O)[C@H](O)[C@H](O)CO)NCc1ccc(-c2nncnn2)cc1 [[^18F]FDG-Tz]

— article PMC10702189, “Tetrazine Glycoconjugate for Pretargeted Positron Emission Tomography Imaging of trans-Cyclooctene-Functionalized Molecular Spherical Nucleic Acids” (ACS Omega, 2023)
